According to patent US20050154046A1, “Methods of treating an inflammatory-related disease” (priority 2004, published 2005):
Entries after “also recorded” stand apart in the source; their conditions may differ.

How the values were obtained:
IL-6 = IL-6 secretion (ELISA) in LPS-stimulated THP-1 cells; type: cell-based, human
Description: Standard IL-6 protein was used to establish a standard curve for the calculation of IL-6 in the medium secreted by the cells (LPS-stimulated or non-stimulated cells in the presence or absence of Meisoindigo).
1) Effects of Meisoindigo and NATURA on the expression/secretion of cytokines IL-1β, IL-6, IL-10: The human monocytic THP-1 cells grown exponentially were stimulated with or without 1 μM of lipopolysaccharide (LPS, Sigma), and exposed for 24 hours to different concentrations of Meisoindigo and NATURA (from 31.25 nM and 62.5 nM), respectively. Viability of cells was examined by trypan blue exception assay.

CDK2 = target: T1, CDK2 (Homo sapiens, UniProt P24941); test: Cyclin dependent kinase activity in THP-1 cells (immunoprecipitation, histone H1 phosphorylation); type: cell-based; conditions: 24 h
T1 construct: endogenous in cells; host or cells: THP-1
Description: 2) Effects of Meisoindigo and/or NATURA on activity of cyclin dependent kinases (CDK) in THP-1 cells (99): THP-1 cells grown exponentially were exposed to […] of Meisoindigo or NATURA for 24 hr, respectively.
The cells were harvested, washed, and total proteins extracted as described previously (100). One hundred μg of the proteins were immuno-precipitated using antibodies against either cdk2, cdk4/6 or cyclin D1 overnight at 4° C. in the presence of a cocktail of protease inhibitors. The immuno-precipitates were washed 4 times with protein extraction buffer and once with kinase assay buffer, and reacted with […] histone H1 in the presence of [γ-^32P]-ATP (10 μCi/10 μM). The phosphorylated histone H1 (represent cdk activity) was measured by scintillation counting or by SDS-polyacrylaimde gel electrophoresis (101, 102).

[1] = test system: idiopathic inflammatory bowel disease; type: in vivo, human
Description: The first diagnosis was performed at North Shore University Hospital Manhasset, Long Island, N.Y. in 1999 by colonoscope. Major symptoms included diarrhea, loose stool and bleeding while their overall condition of health was considered excellent. Clinical-activity index (Table 5) (113) was determined to be between 7 and 8. Their physician prescribed hydrocortisone foam, which they administered for 10 days according to doctor's instructions. […] In early 2002, they went to a well-known and respected Chinese Medical Hospital in Beijing where Flexible Sigmoidoscopy was performed. Again, they were diagnosed as having active inflammatory bowel disease.
At this time, as previous treatments had no effect, their physician prescribed several traditional Chinese medicines. They administered these for several months, yet no improvement of their symptoms resulted. During the period of February 2000 to the summer of 2002, they also tried various other traditional Chinese medicines due to the continued and very troublesome nature of their disease, but nothing was successful. Upon returning to the United States in 2002, they went to the Mount Sinai Medical Center, a nationally recognized American center for the treatment of inflammatory bowel disease. In October 2002, their new physician again performed a colonoscope, together with a histological examination of two biopsy samples (A and B) (FIG. 8, panel A, before the treatment).
These included skin itch, abdominal cramping, pain and bleeding. They then asked their physician for advice and was instructed to use this medication on an intermittently. However, the side effects continued actually worsened each time the medication was used. They then halted all application of this medication.
The patient voluntarily administered Meisoindigo at a recommended dose of 25 mg, once a day for a scheduled three weeks of treatment. […] After nine weeks of remission (three weeks on the medicine, three weeks off of the medicine, and three weeks on the medicine again), the patient again visited their physician and requested a Flexible Sigmoidoscopy to determine if their remission was subjective or objective. The Flexible Sigmoidoscopy was performed on Nov. 4, 2003. After reviewing the results their physician concluded that their inflammation completely arrested.

TNF-α = TNF-α secretion (ELISA) in LPS-stimulated THP-1 cells; type: cell-based, human
Description: Methods: The cells were stimulated with or without […] of lipopolysaccharide (LPS, Sigma), and exposed for 24 hours to different concentrations of Meisoindigo (from 31.25 nM to 16,000 nM). Viability of cells was examined under microscope after trypan blue staining. Protein levels of IL-1β secreted into the culture media by the cells were then measured by ELISA and calculated from its standard curve using an assay Kit from R&D Systems according to instructions provided by the supplier. The method was established and validated by a good standard curve obtained. An example of the standard curve is shown in FIG. 2, panel A. The representative derivative Meisoindigo was used. The cell line and the procedure of ELISA to measure secretion of TNF-α were the same as described in Example 1, except the standard TNF-α protein was used to establish a standard curve for the calculation of the protein secreted in the medium by the cells (LPS-stimulated or non-stimulated cells in the presence or absence of Meisoindigo).

[2] = test system: scale epithelial cells of mouse-tails; test: Mouse-tail model: granular layer formation in scale epithelial cells; type: in vivo, Kunming mice; conditions: 13 days
Excerpt: Materials: Meisoindigo was synthesized, purified and its structure characterized by Natrogen Therapeutics, Inc. The purity of the compound was 98.5% as described in the Examples above. A suspension of Meisoindigo was freshly prepared in 0.5% sodium methylcellulose and given orally for the animal tests described below. Other chemicals used in the following experiments were purchased from Sigma.
Pathogen-free female Kunming mice at 12 weeks of age with body weights from 22 to 25 grams were housed 5 per cage, and given, ad libitum, fresh tap water and commercial rodent pellets. Animal rooms were controlled at 24±2° C. with a relative humidity of 60±5% and a 12 hour light/dark cycle (07:00-19:00 hr).
Effect of Meisoindigo on Epidermal Cell Differentiation in Mouse Tails: Sixty female Kunming mice were randomly divided into 5 groups, 20 in one control group, and 10 in 4 drug-tested groups. Meisoindigo was freshly prepared as a suspension in 0.5% of sodium methylcellulose. The drug was given orally at doses of 50, 100, and 200 mg/kg, respectively, once a day for 13 days. Methotrexate (MTX) was used as a positive control at a dose of 1 mg/kg, i.p. once every 2 days, for the same period of time. The same volume and vehicle for Meisoindigo suspension were used as a negative control. […] Slides were prepared for histological examination as originally described by Bosman et. al., (106). The slides were prepared by cutting the tails into longitudinal sections, and Hematoxylin and Eosin (H&E) stained. The slides were then examined with a light microscope to evaluate the degree of orthokeratosis (OK) and epidermal hyperplasia. The former was done by measuring the horizontal length of the fully developed granular layer stratum granulosum within an individual scale in relation to its total length. Drug activity was defined by the increase of the positive scale cells containing granular layer stratum granulosum between two folliculus pili.

IL-2 = IL-2 secretion in LPS-stimulated THP-1 cells; type: cell-based, human; conditions: cells could not be stimulated to secrete IL-2
[3] = LPS-stimulated THP-1 cells, LPS alone 100.00
[4] = 25 mg once a day, before treatment 0
[5] = 25 mg once a day, before treatment 1
[6] = 25 mg once a day, before treatment 2

CN1C(=O)/C(=C2/C(=O)Nc3ccccc32)c2ccccc21 [Meisoindigo]
reduction of IL-6 secretion (IL-6; 31.25 nM, LPS 1 μg/ml, THP-1 cells): Approximately 85%
IL-6 (Inhibition), Percentage of Maximal Response Without Cytotoxicity (IL-6; [3]): 83.51 ± 5.41%
effect on IL-6 production/secretion (IL-6; as low as 31.25 nM (31.25 and 62.5 nM in FIG. 6), 24 h): significantly inhibit
partial inhibition of CDK activity (CDK2; 1.5 μM, FIG. 6B): 23%
inhibition of CDK2 activity (CDK2; 31.25 and 62.50 nM): failed to inhibit; also recorded: no inhibitory effect
clinical response ([1]; 25 mg once a day, after the first three doses): complete remission
Patient Score After Treatment: Abdominal tenderness [1, 4]: 0
Patient Score After Treatment: Nocturnal diarrhea [1, 4]: 0
Patient Score After Treatment: Abdominal pain or cramping [1, 5]: 0
Patient Score After Treatment: Fecal incontinence [1, 5]: 0
Patient Score After Treatment: Need for antidiarrhea drugs [1, 5]: 0
Patient Score After Treatment: Diarrhea (No. of daily stools) [1, 6]: 0
Patient Score After Treatment: General well-being [1, 6]: 0
Patient Score After Treatment: Visible blood in stool (% of movements) [1, 6]: 0
Flexible Sigmoidoscopy / pathological examination after treatment ([1]; after nine weeks of remission (three weeks on, three off, three on)): inactive chronic protocolitis suggestive of idiopathic inflammatory bowel disease
total amount of drug needed to obtain a complete cure of the inflammatory bowel disease ([1]; human, in vivo): 525 mg
reduction of TNF-α secretion (TNF-α; 2.0 μM, 24 h): Approximately 50%
inhibition of TNF-α secretion (TNF-α; 16 μM): complete inhibition
effect on TNF-α secretion over the concentration series (TNF-α; 0.031 to 16 μM, 24 h): effectively inhibited; also recorded: concentration-dependent inhibition
TNF-α (Inhibition), Percentage of Maximal Response Without Cytotoxicity (TNF-α; [3]): 49.20 ± 3.37%
further reduction of TNF-α secretion on increasing the concentration (TNF-α; up to 8 μM): did not cause further reduction
Granulous Scales (X ± SD) ([2]; 50.0 mg/kg orally once a day): 22.37 ± 6.20
Granulous Scales (X ± SD) ([2]; 100.0 mg/kg orally once a day): 25.98 ± 4.12
Granulous Scales (X ± SD) ([2]; 200.0 mg/kg orally once a day): 31.30 ± 7.92
effect on IL-2 secretion (IL-2): no effects were observed
